PubChem BioAssay (NCI)
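Where inhibition never reached the appropriate level, the endpoint shown equals the highest concentration tested. Otherwise, values were interpolated linearly from a five-concentration, 48-hour dose response in 96-well plates. GI50 is the concentration that inhibits growth by half. TGI marks complete inhibition of growth.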

Key:
Test in all cases: NCI tumour cell line growth inhibition, 48 h
786-0 renal = system: 786-0 renal
A498 renal = system: A498 renal
A549 NSCLC = system: A549 NSCLC
ACHN renal = system: ACHN renal
BT-549 breast = system: BT-549 breast
CAKI-1 renal = system: CAKI-1 renal
CCRF-CEM leukemia = system: CCRF-CEM leukemia
COLO 205 colon = system: COLO 205 colon
DU-145 prostate = system: DU-145 prostate
EKVX NSCLC = system: EKVX NSCLC
HCC-2998 colon = system: HCC-2998 colon
HCT-116 colon = system: HCT-116 colon
HCT-15 colon = system: HCT-15 colon
HL-60(TB) leukemia = system: HL-60(TB) leukemia
HOP-62 NSCLC = system: HOP-62 NSCLC
HOP-92 NSCLC = system: HOP-92 NSCLC
HS 578T breast = system: HS 578T breast
HT29 colon = system: HT29 colon
IGROV1 ovarian = system: IGROV1 ovarian
K-562 leukemia = system: K-562 leukemia
KM12 colon = system: KM12 colon
LOX IMVI melanoma = system: LOX IMVI melanoma
M14 melanoma = system: M14 melanoma
MALME-3M melanoma = system: MALME-3M melanoma
MCF7 breast = system: MCF7 breast
MDA-MB-231 breast = system: MDA-MB-231 breast
MDA-MB-435 = system: MDA-MB-435
MDA-MB-468 breast = system: MDA-MB-468 breast
MOLT-4 leukemia = system: MOLT-4 leukemia
NCI-H226 lung = system: NCI-H226 lung
NCI-H23 lung = system: NCI-H23 lung
NCI-H460 lung = system: NCI-H460 lung
NCI-H522 lung = system: NCI-H522 lung
NCI/ADR-RES ovarian = system: NCI/ADR-RES ovarian
OVCAR-3 ovarian = system: OVCAR-3 ovarian
OVCAR-4 ovarian = system: OVCAR-4 ovarian
OVCAR-5 ovarian = system: OVCAR-5 ovarian
OVCAR-8 ovarian = system: OVCAR-8 ovarian
PC-3 prostate = system: PC-3 prostate
RPMI-8226 leukemia = system: RPMI-8226 leukemia
RXF 393 renal = system: RXF 393 renal
SF-268 CNS = system: SF-268 CNS
SF-295 CNS = system: SF-295 CNS
SF-539 CNS = system: SF-539 CNS
SK-MEL-2 melanoma = system: SK-MEL-2 melanoma
SK-MEL-28 melanoma = system: SK-MEL-28 melanoma
SK-MEL-5 melanoma = system: SK-MEL-5 melanoma
SK-OV-3 ovarian = system: SK-OV-3 ovarian
SN12C renal = system: SN12C renal
SNB-19 CNS = system: SNB-19 CNS
SR leukemia = system: SR leukemia
SW-620 colon = system: SW-620 colon
T-47D breast = system: T-47D breast
TK-10 renal = system: TK-10 renal
U251 CNS = system: U251 CNS
UACC-257 melanoma = system: UACC-257 melanoma
UACC-62 melanoma = system: UACC-62 melanoma
UO-31 renal = system: UO-31 renal

`COc1ccc(C(=O)/C=C/c2c(F)cccc2Cl)cc1S(N)(=O)=O` was tested, and the GI50 (786-0 renal) was 2.99 µM, the TGI (786-0 renal) was 10.5 µM and the GI50 (A498 renal) was 15.9 µM. The TGI (A498 renal) was 32 µM, the GI50 (A549 NSCLC) was 2.38 µM and the TGI (A549 NSCLC) was 10.1 µM. It also gave a GI50 (ACHN renal) of 2.8 µM, a TGI (ACHN renal) of 8.33 µM and a GI50 (BT-549 breast) of 2.72 µM. It also gave a TGI (BT-549 breast) of 8.63 µM, a GI50 (CAKI-1 renal) of 4.07 µM and a TGI (CAKI-1 renal) of 13.9 µM. The GI50 (CCRF-CEM leukemia) was 2.59 µM, the TGI (CCRF-CEM leukemia) was 6.78 µM and the GI50 (COLO 205 colon) was 2.17 µM. For the same molecule, the TGI (COLO 205 colon) was 3.95 µM, the GI50 (DU-145 prostate) was 3.3 µM and the TGI (DU-145 prostate) was 12.5 µM. For the same molecule, the GI50 (EKVX NSCLC) was 4.12 µM, the TGI (EKVX NSCLC) was 14.4 µM and the GI50 (HCC-2998 colon) was 2.78 µM. For the same molecule, the TGI (HCC-2998 colon) was 10.3 µM, the GI50 (HCT-116 colon) was 1.76 µM and the TGI (HCT-116 colon) was 3.78 µM. It also gave a GI50 (HCT-15 colon) of 1.35 µM, a TGI (HCT-15 colon) of 3.38 µM and a GI50 (HL-60(TB) leukemia) of 1.65 µM. The TGI (HL-60(TB) leukemia) was 6.46 µM, the GI50 (HOP-62 NSCLC) was 3.01 µM and the TGI (HOP-62 NSCLC) was 9.42 µM. The GI50 (HOP-92 NSCLC) was 3.58 µM, the TGI (HOP-92 NSCLC) was 15.3 µM and the GI50 (HS 578T breast) was 6.43 µM. For the same molecule, the TGI (HS 578T breast) was > 100 µM, the GI50 (HT29 colon) was 1.91 µM and the TGI (HT29 colon) was 3.81 µM. For the same molecule, the GI50 (IGROV1 ovarian) was 2.8 µM, the TGI (IGROV1 ovarian) was 10.4 µM and the GI50 (K-562 leukemia) was 2.82 µM. It also gave a TGI (K-562 leukemia) of 14.2 µM, a GI50 (KM12 colon) of 2.59 µM and a TGI (KM12 colon) of 6.66 µM. It also gave a GI50 (LOX IMVI melanoma) of 1.61 µM, a TGI (LOX IMVI melanoma) of 3.34 µM and a GI50 (M14 melanoma) of 2.62 µM. For the same molecule, the TGI (M14 melanoma) was 10.6 µM, the GI50 (MALME-3M melanoma) was 3.99 µM and the TGI (MALME-3M melanoma) was 16.4 µM. It also gave a GI50 (MCF7 breast) of 2.19 µM, a TGI (MCF7 breast) of 11.2 µM and a GI50 (MDA-MB-231 breast) of 2.88 µM. It also gave a TGI (MDA-MB-231 breast) of 7.71 µM, a GI50 (MDA-MB-435) of 3.39 µM and a TGI (MDA-MB-435) of 15.7 µM. It also gave a GI50 (MDA-MB-468 breast) of 1.47 µM, a TGI (MDA-MB-468 breast) of 4.12 µM and a GI50 (MOLT-4 leukemia) of 2.41 µM. The TGI (MOLT-4 leukemia) was 7.58 µM, the GI50 (NCI-H226 lung) was 3.23 µM and the TGI (NCI-H226 lung) was 12.3 µM. It also gave a GI50 (NCI-H23 lung) of 3.04 µM, a TGI (NCI-H23 lung) of 10.8 µM and a GI50 (NCI-H460 lung) of 3.01 µM. For the same molecule, the TGI (NCI-H460 lung) was > 100 µM, the GI50 (NCI-H522 lung) was 1.67 µM and the TGI (NCI-H522 lung) was 3.51 µM. For the same molecule, the GI50 (NCI/ADR-RES ovarian) was 2.83 µM, the TGI (NCI/ADR-RES ovarian) was 9.24 µM and the GI50 (OVCAR-3 ovarian) was 2.53 µM. For the same molecule, the TGI (OVCAR-3 ovarian) was 8.4 µM, the GI50 (OVCAR-4 ovarian) was 4.13 µM and the TGI (OVCAR-4 ovarian) was 20.5 µM. It also gave a GI50 (OVCAR-5 ovarian) of 3.02 µM, a TGI (OVCAR-5 ovarian) of 11.1 µM and a GI50 (OVCAR-8 ovarian) of 3.01 µM. The TGI (OVCAR-8 ovarian) was 12.3 µM, the GI50 (PC-3 prostate) was 4.67 µM and the TGI (PC-3 prostate) was 19.7 µM. The GI50 (RPMI-8226 leukemia) was 2.57 µM, the TGI (RPMI-8226 leukemia) was 8 µM and the GI50 (RXF 393 renal) was 1.74 µM. For the same molecule, the TGI (RXF 393 renal) was 4.56 µM, the GI50 (SF-268 CNS) was 3.33 µM and the TGI (SF-268 CNS) was 16.7 µM. For the same molecule, the GI50 (SF-295 CNS) was 3.1 µM, the TGI (SF-295 CNS) was 11 µM and the GI50 (SF-539 CNS) was 2.01 µM. It also gave a TGI (SF-539 CNS) of 4.22 µM, a GI50 (SK-MEL-2 melanoma) of 3.96 µM and a TGI (SK-MEL-2 melanoma) of 16.4 µM. The GI50 (SK-MEL-28 melanoma) was 3.6 µM, the TGI (SK-MEL-28 melanoma) was 14 µM and the GI50 (SK-MEL-5 melanoma) was 3.06 µM. It also gave a TGI (SK-MEL-5 melanoma) of 12.3 µM, a GI50 (SK-OV-3 ovarian) of 5.36 µM and a TGI (SK-OV-3 ovarian) of 17.1 µM. For the same molecule, the GI50 (SN12C renal) was 2.59 µM, the TGI (SN12C renal) was 10.5 µM and the GI50 (SNB-19 CNS) was 4.24 µM. It also gave a TGI (SNB-19 CNS) of 15.2 µM, a GI50 (SR leukemia) of 1.41 µM and a TGI (SR leukemia) of 5.61 µM. It also gave a GI50 (SW-620 colon) of 3.61 µM, a TGI (SW-620 colon) of 20.7 µM and a GI50 (T-47D breast) of 2.42 µM. For the same molecule, the TGI (T-47D breast) was 9.53 µM, the GI50 (TK-10 renal) was 3.53 µM and the TGI (TK-10 renal) was 9.79 µM. The GI50 (U251 CNS) was 1.73 µM, the TGI (U251 CNS) was 3.69 µM and the GI50 (UACC-257 melanoma) was 2.99 µM. It also gave a TGI (UACC-257 melanoma) of 16.6 µM, a GI50 (UACC-62 melanoma) of 2.02 µM and a TGI (UACC-62 melanoma) of 6.55 µM. It also gave a GI50 (UO-31 renal) of 2.94 µM and a TGI (UO-31 renal) of 11.9 µM.
